Data as given in patent publication US20240124470A1, “FIVE-MEMBERED RING DERIVATIVE AND MEDICAL USE THEREOF” (SICHUAN HAISCO PHARMACEUTICAL CO., LTD., priority 2020, published 2024).

Molecular target: T1, hERG potassium channel (Homo sapiens, UniProt Q12809)
T1 construct: expressed in transfected cells
Test: Effects on hERG potassium channels, manual whole cell patch-clamp in CHO cells
Format: cell-based
Settings: hERG potassium current, room temperature
From the text: 2. Effects of the Compounds on hERG Potassium Channels
Experimental platform: electrophysiological manual patch-clamp system
Cell line: Chinese hamster ovary (CHO) cells stably expressing hERG potassium ion channel
Experimental method: For CHO (Chinese Hamster Ovary) cells stably expressing hERG potassium channel, whole cell patch-clamp technique was used to recorded hERG potassium channel current at room temperature in this experiment. The glass microelectrode is made of a glass electrode blank (BF150-86-10, Sutter) by a puller. The tip resistance after filling the liquid in the electrode is about 2-5 MΩ. The glass microelectrode can be connected to the patch-clamp amplifier by inserting the glass microelectrode into an amplifier probe. The clamping voltage and data recording are controlled and recorded by the pClamp 10 software through a computer. The sampling frequency is 10 kHz, and the filtering frequency is 2 kHz. After the whole cell records were obtained, the cells were clamped at −80 mV, and the step voltage that induced the hERG potassium current (IhERG) was depolarized from −80 mV to +20 mV for 2 s, then repolarized to −50 mV, and returned to −80 mV after 1 s. This voltage stimulation was given every 10 s, and the administration process was started after the hERG potassium current was confirmed to be stable (at least 1 minute). The compound was administered for at least 1 minute at each test concentration, and at least 2 cells (n≥2) were tested at each concentration.
Data analysis processing was carried out by using pClamp 10, GraphPad Prism 5 and Excel software. The inhibition degree of hERG potassium current (peak value of hERG tail current induced at −50 mV) at different compound concentrations was calculated by the following formula: Inhibition %=[1−(I/Io)]×100%.
Among the formula, Inhibition % represents the percentage of inhibition of hERG potassium current by the compound, and I and Io represent the amplitude of hERG potassium current after and before dosing, respectively.
Compound IC50 was calculated using GraphPad Prism 5 software by fitting according to the following equation:
Y=Bottom+(Top−Bottom)/(1+10^((LogIC50−X)×HillSlope))
Among the equation, X represents the Log value of the tested concentration of the test sample, Y represents the inhibition percentage at the corresponding concentration, and Bottom and Top represent the minimum and maximum inhibition percentage, respectively.

T1 sequence (Q12809 whole entry): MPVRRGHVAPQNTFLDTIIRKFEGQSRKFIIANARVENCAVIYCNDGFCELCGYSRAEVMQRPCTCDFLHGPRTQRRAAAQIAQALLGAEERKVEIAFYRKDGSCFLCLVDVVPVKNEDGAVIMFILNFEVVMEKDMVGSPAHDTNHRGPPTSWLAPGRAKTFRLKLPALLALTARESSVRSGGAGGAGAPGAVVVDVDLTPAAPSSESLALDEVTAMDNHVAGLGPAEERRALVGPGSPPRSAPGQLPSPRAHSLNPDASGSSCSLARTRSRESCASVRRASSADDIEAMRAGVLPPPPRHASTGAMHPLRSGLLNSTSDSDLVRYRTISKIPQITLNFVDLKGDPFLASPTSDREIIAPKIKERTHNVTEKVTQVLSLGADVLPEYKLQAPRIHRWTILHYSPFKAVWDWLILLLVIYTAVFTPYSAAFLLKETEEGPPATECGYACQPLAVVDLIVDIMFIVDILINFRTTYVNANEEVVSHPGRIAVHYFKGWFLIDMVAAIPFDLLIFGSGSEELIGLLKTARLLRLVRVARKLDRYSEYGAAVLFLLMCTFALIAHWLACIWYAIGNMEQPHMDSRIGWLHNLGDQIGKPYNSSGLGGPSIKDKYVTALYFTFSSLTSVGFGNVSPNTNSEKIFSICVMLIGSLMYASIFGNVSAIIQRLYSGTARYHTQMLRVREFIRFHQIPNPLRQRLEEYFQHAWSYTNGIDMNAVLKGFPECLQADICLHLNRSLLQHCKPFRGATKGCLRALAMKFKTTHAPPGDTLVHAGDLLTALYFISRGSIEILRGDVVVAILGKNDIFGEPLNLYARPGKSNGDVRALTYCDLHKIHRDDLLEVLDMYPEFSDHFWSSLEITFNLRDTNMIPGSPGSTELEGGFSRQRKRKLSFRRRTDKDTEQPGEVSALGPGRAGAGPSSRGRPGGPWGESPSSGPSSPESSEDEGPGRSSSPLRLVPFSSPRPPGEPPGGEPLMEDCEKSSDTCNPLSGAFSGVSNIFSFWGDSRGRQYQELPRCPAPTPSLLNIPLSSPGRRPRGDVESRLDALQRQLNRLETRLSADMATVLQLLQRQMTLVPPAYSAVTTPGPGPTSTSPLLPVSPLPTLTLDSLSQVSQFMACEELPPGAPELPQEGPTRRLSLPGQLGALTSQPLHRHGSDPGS

## N#Cc1ccc(COc2cccc(-c3ccc(Cc4nc5sc(C(=O)O)cc5n4C[C@@H]4CCO4)c(F)c3)n2)c(F)c1 [Compound 6, (S)-2-(4-(6-((4-cyano-2-fluorobenzyl)oxy)pyridin-2-yl)-2-fluorobenzyl)-1-(oxetan-2-ylmethyl)-1H-thieno[2,3-d]imidazole-5-carboxylic acid]
  IC50: > 40 µM
